Assays:
MRC5 = assay: Seahorse XF96 mitochondria stress test (OCR), MRC5; type: cell-based, human; settings: MRC5, 0.1–3 μM
MDA-MB-231 [1] = assay: Whole-cell uptake after pre-treatment with uptake inhibitors (GF-AAS); type: cell-based; settings: MDA-MB-231, 5 μM, 24 h; NaN3, chlorpromazine, Me-β-CD, genistein, wortmannin
Protocol: To understand cell uptake mechanisms, detailed uptake studies using GF-AAS were conducted whereby MDA-MB-231 cells were incubated with gold compound, 2a after cellular pretreatment with one of a number of known inhibitors of cellular uptake. Sodium azide (NaN3), which is known to inhibit mitochondrial oxidative phosphorylation, was used as a general inhibitor of energy (ATP)-dependent (active) uptake; chlorpromazine (CL) was utilized as an inhibitor of clathrin-dependent endocytosis (CDE); β-cyclodextrin (Me-β-CD) and genestein (Gen) were used as inhibitors of clathrin-independent endocytosis (CIE); and, wortmannin (Wort) was employed as a known inhibitor of micropinocytosis. […] Being an […] pathway illustrates that these compounds are not dependent on oxidative phosphorylation for uptake, despite; their ability to modulate OXPHOS. […]
and treated at a final concentration of 5 µ M and treated for 24 hours as well. The cells were then collected by trypsinization and centrifuged at 2000 rpm for 5 minutes to form a pellet. […]
text (Figure 5C). Samples 37 °C, NaN 3, methyl-β-cyclodextrin, and chlorpromazine hydrochloride were calculated using calibration curve Fig. S134 and samples wortmannin, genistein, and +4 °C were calculated using calibration curve Fig. S135. […]

MDA-MB-231 [2] = assay: Cell fraction gold uptake by GF-AAS; type: cell-based; settings: MDA-MB-231, 5 μM, 24 h
Protocol: We next performed cellular uptake studies to determine what percentage of the compounds were getting into the cell after treatment. Given that most therapeutic targets are localized receptors on the plasma membrane, quantifying the amount of gold compounds in cellular fractions and investigating their mode of uptake is crucial. For whole-cell uptake studies, MDA-MB-231 were treated with all 10 compounds and Auranofin at 5 μM for 24 h (Fig. 5A). Auranofin is the only gold-based therapeutic to be clinically approved, therefor we used this drug as a benchmark for comparison.[67] After treatment, the cells were washed with PBS, centrifuged, and digested with 0.5 mL of conc. HNO3 and diluted with DI water and subjected to ICP-OES analysis. […] Given that these complexes readily react with nucleophilic biological molecules and the lack of accumulation in the nuclear fraction, it is evident that the mechanism of action of this class of compounds is differentiated from the clinically available platinum agents. […]
and treated at a final concentration of 5 µ M and treated for 24 hours as well. The cells were then collected by trypsinization and centrifuged at 2000 rpm for 5 minutes to form a pellet. The pellet was suspended in 1 mL of DMEM, transferred to a 1.5 mL Eppendorf tube, and centrifuged again at 2000 rpm for 5 minutes. […]

Structure (SMILES): C[N+](C)=C1[S][Au-2]2([S]1)[c]1ccccc1Cc1cccc[n+]12.F[P-](F)(F)(F)(F)F (stereo not drawn) [2a]
- Effect on OCR of MRC5 (MRC5): did not impact the OCR
- Uptake after pre-treatment with uptake inhibitors (MDA-MB-231 [1]): significantly decreased with all inhibitors with the exception of NaN3
- Au content localized in the cytoplasm and total membrane fraction (pellet) (MDA-MB-231 [2]): > 90%

From publication PMC8162438, “Cancer cell-selective modulation of mitochondrial respiration and metabolism by potent organogold(III) dithiocarbamates” (Chemical Science, 2020)
